# How the values were obtained:
# Assay in all cases: normalised response (% of control), CellTox Green; higher = less cell death (100 = DMSO, 0 = benzethonium chloride kill control)
# Settings in all cases: incubation time: 72 h
# CAL-148 = tested on: CAL-148
# How it was run: (§1)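 Two readouts were taken after 72 h: CellTox Green fluorescence (485/520 nm) first, then CellTiter-Glo luminescence after 10 min at room temperature. Breast cancer cell lines had been seeded as 20 µl suspension into 384-well plates holding compound at 5 concentrations in 10-fold steps across a compound-specific 10,000-fold range. Each value is a normalised signal at a single concentration, with plates scaled to 0.1 % DMSO (100) and a positive kill control (0).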
# HCC1599 = tested on: HCC1599
# How it was run: as §1
# MDA-MB-468 = tested on: MDA-MB-468
# How it was run: as §1
# DU-4475 = tested on: DU-4475
# How it was run: as §1
# MDA-MB-436 = tested on: MDA-MB-436
# How it was run: as §1
# BT-474 = tested on: BT-474
# How it was run: as §1
# MDA-MB-231 = tested on: MDA-MB-231
# How it was run: as §1
# MDA-MB-453 = tested on: MDA-MB-453
# How it was run: as §1
# BT-549 = tested on: BT-549
# How it was run: as §1
# MCF-10A = tested on: MCF-10A
# How it was run: as §1
# HCC1937 = tested on: HCC1937
# How it was run: as §1
# CAL-85-1 = tested on: CAL-85-1
# How it was run: as §1
# Hs578T = tested on: Hs578T
# How it was run: as §1
# HCC1143 = tested on: HCC1143
# How it was run: as §1
# MFM-223 = tested on: MFM-223
# How it was run: as §1
# CAL-120 = tested on: CAL-120
# How it was run: as §1
# HDQ-P1 = tested on: HDQ-P1
# How it was run: as §1
# CAL-51 = tested on: CAL-51
# How it was run: as §1
Structure (SMILES),normalised response (CAL-148) [%],normalised response (HCC1599) [%],normalised response (MDA-MB-468) [%],normalised response (DU-4475) [%],normalised response (MDA-MB-436) [%],normalised response (BT-474) [%],normalised response (MDA-MB-231) [%],normalised response (MDA-MB-453) [%],normalised response (BT-549) [%],normalised response (MCF-10A) [%],normalised response (HCC1937) [%],normalised response (CAL-85-1) [%],normalised response (Hs578T) [%],normalised response (HCC1143) [%],normalised response (MFM-223) [%],normalised response (CAL-120) [%],normalised response (HDQ-P1) [%],normalised response (CAL-51) [%]
Cc1ccc(C(=O)Nc2ccc(CN3CCN(C)CC3)c(C(F)(F)F)c2)cc1C#Cc1cnc2cccnn12 [Ponatinib] (1000 nM),60.9,103,164,93.3,95.6,92.3,-32.9,103,59.4,97,15,60.8,24.4,71.3,96.4,59.5,76.6,57.4
Cn1c(Nc2ccc(C(F)(F)F)cc2)nc2cc(Oc3ccnc(-c4ncc(C(F)(F)F)[nH]4)c3)ccc21 [RAF265] (100 nM),107,98.6,115,105,94.9,100,114,105,–,107,109,86.3,107,96.9,102,100,113,100
Cn1c(Nc2ccc(C(F)(F)F)cc2)nc2cc(Oc3ccnc(-c4ncc(C(F)(F)F)[nH]4)c3)ccc21 [RAF265] (1000 nM),80.4,110,145,99.4,107,98.1,113,102,81.7,75.4,82,55.5,118,122,21.6,100,109,96.3
CN(N=O)C(=O)N[C@@H](C=O)[C@@H](O)[C@H](O)[C@H](O)CO [Streptozocin] (1000 nM),–,103,90.8,107,106,97.2,96.8,108,99.5,53.9,99.3,110,99,113,98.3,106,92.3,95.2
CN[C@@H]1C[C@H]2O[C@@](C)([C@@H]1OC)n1c3ccccc3c3c4c(c5c6ccccc6n2c5c31)C(=O)N[C@H]4O [UCN-01] (1000 nM),89.2,79.3,59.7,78.3,94.5,70.9,32.6,91.4,78.7,-24.5,106,29.5,47.3,53.2,67.8,59.7,63.7,40.2
CN[C@@H]1C[C@H]2O[C@@](C)([C@@H]1OC)n1c3ccccc3c3c4c(c5c6ccccc6n2c5c31)C(=O)N[C@H]4O [UCN-01] (10000 nM),40.4,80.9,180,76.1,83.2,24.5,1.94,78.3,43.8,-57.5,95.6,-33.4,-27.6,72,78.1,18.1,43.6,33.5
Clc1ccc(Nc2nnc(Cc3ccncc3)c3ccccc23)cc1 [Vatalanib] (1000 nM),98.1,104,138,101,102,97.2,118,104,137,84.5,134,104,105,64.7,103,92.8,105,109
Clc1ccc(Nc2nnc(Cc3ccncc3)c3ccccc23)cc1 [Vatalanib] (10000 nM),53.2,114,86.5,107,107,102,129,105,118,55.9,123,76.8,78.7,125,97.1,102,114,109
CCC1=C[C@@H]2CN(C1)Cc1c([nH]c3ccccc13)[C@@](C(=O)OC)(c1cc3c(cc1OC)N(C)[C@H]1[C@@](O)(C(=O)OC)[C@H](OC(C)=O)[C@]4(CC)C=CCN5CC[C@]31[C@@H]54)C2 [Vinorelbine] (1000 nM),54.8,79.5,98.1,96.7,76.9,61.2,20.9,101,63.8,26.6,92.5,68.7,27.5,104,55.2,91.7,-18.4,18.8
Oc1nc(-c2ccc(C(F)(F)F)cc2)nc2c1CSCC2 [XAV-939] (1000 nM),101,100,118,101,102,101,102,102,106,67.7,114,103,88.9,96.1,99.9,102,77.1,102
Oc1nc(-c2ccc(C(F)(F)F)cc2)nc2c1CSCC2 [XAV-939] (10000 nM),101,103,115,103,95.5,103,101,94.1,104,103,93.2,105,65.4,103,101,93.8,71.7,79.7
